Data from ChEMBL document CHEMBL1152139, “Pterocarpans and flavanones from Sophora flavescens displaying potent neuraminidase inhibition” (Bioorg Med Chem Lett, 2008).

What was measured:
[1] = Inhibition of Clostridium perfringens neuraminidase by Lineweaver-Burke plot
[2] = Inhibition of Clostridium perfringens neuraminidase
[3] = Inhibition of mouse liver sialidase

Question: For `C=C(C)[C@H](CCC(C)(C)O)Cc1c(O)cc(O)c2c1O[C@H](c1ccc(O)cc1O)CC2=O` [NORKURARINOL], which Ki [1] is on record?
Answer: 22.7 µM

Question: And the IC50 [2]?
Answer: 18.3 µM

Question: Which results are given for `COc1ccc2c(c1)OC[C@H]1c3cc4c(cc3O[C@@H]21)OCO4` [PTEROCARPIN]?
Answer: Ki [1]: 1.7 µM; IC50 [2]: 1.4 µM

Question: For `O=C(O)[C@H]1O[C@@H](Oc2c(O)c(O[C@@H]3O[C@H](C(=O)O)[C@@H](O)[C@H](O)[C@H]3O)c3oc(-c4ccc(O)cc4)cc(=O)c3c2O)[C@H](O)[C@@H](O)[C@@H]1O`, which IC50 [3] is on record?
Answer: 40 µM

Question: With `C=C(C)[C@H](CC=C(C)C)Cc1c(O)cc(O)c2c1O[C@H](c1ccc(O)cc1O)CC2=O` [SOPHORAFLAVANONE G] as the compound, how does the Ki [1] read?
Answer: 20 µM

Question: And the IC50 [2]?
Answer: 13.5 µM

Question: Which results are given for `C=C(C)[C@H](CCC(C)(C)O)Cc1c(O)cc(O)c2c1O[C@H](c1ccccc1O)CC2=O` [KUSHENOL T]?
Answer: Ki [1]: 10.8 µM; IC50 [2]: 12.1 µM

Question: Which Ki [1] does the source give for `OC[C@H]1O[C@@H](Oc2ccc3c(c2)OC[C@H]2c4cc5c(cc4O[C@@H]32)OCO5)[C@H](O)[C@@H](O)[C@@H]1O` [TRIFOLIRHIZIN] here?
Answer: 190 µM

Question: And the IC50 [2]?
Answer: 237 µM

Question: What does the source list for `Oc1ccc2c(c1)OC[C@H]1c3cc4c(cc3O[C@@H]21)OCO4` [MAACKIAIN]?
Answer: Ki [1]: 2.1 µM; IC50 [2]: 3.2 µM

Question: What does the source list for `C=C(C)C(CC=C(C)C)Cc1c(O)cc(OC)c2c1O[C@H](c1ccc(O)cc1O)CC2=O` (stereo not given in full) [KURARINONE]?
Answer: Ki [1]: 18.8 µM; IC50 [2]: 15.1 µM

Question: For `O=c1c2cc(O)c(O)cc2oc2cc(O)c([C@@H]3O[C@H](CO)[C@@H](O)[C@H](O)[C@H]3O)c(O)c12` [MANGIFERIN], which IC50 [2] is on record?
Answer: 16.2 µM

Question: What does the source list for `C=C(C)[C@H](CC=C(C)C)Cc1c(O)cc(O)c2c1O[C@H](c1ccccc1O)CC2=O` [KUSHENOL A]?
Answer: Ki [1]: 17.1 µM; IC50 [2]: 14.8 µM

Question: Which Ki [1] does the source give for `C=C(C)[C@H](CCC(C)(C)O)Cc1c(O)cc(OC)c2c1O[C@H](c1ccc(O)cc1O)CC2=O` [KURARINOL] here?
Answer: 19.7 µM

Question: And the IC50 [2]?
Answer: 17 µM
